We go through 63 compounds from a melting point compilation (Tetko et al.; mined from patent text by program, amines drawn as free bases though some values may be those of a salt).

Some results are limits rather than exact numbers.

As a reminder, the melting point is the temperature of the solid-liquid transition. On to `Cc1cc(Oc2cccc(C(F)(F)F)c2)nn1C(=O)Nc1ccccc1`, for which the melting point was in the range of 53 to 54 °C.

Consider `CC(C)(C)OC(=O)N1CCN(C(=O)c2cccs2)CC1`, for which the melting point turned out to be 76 °C.

The compound `COc1ccc(Cl)cc1C1(F)C(=O)Nc2ccc(F)cc21` (stereo not drawn) registered a melting point of 205 to 207 °C.

`Cc1ccc2c(-c3cc(C(C)(C)C)c(O)c(C(C)(C)C)c3)n[nH]c2n1` came in with a melting point of 239 to 240 °C.

`CCCCCCCCCCCCCCCCCCNc1nc(N)nc(N)n1` came in with a melting point of 91 °C.

As for `COC(=O)C1=C(C)NC(C)=C(C(=O)OCOC(=O)C(C)C)C1c1cccc(Cl)c1Cl` (stereo not drawn), the melting point was determined as 145 °C.

As to `COC(=O)[C@H](Cc1ccc(OCCN2CCC(O)(c3ccccc3)CC2)cc1)NC(=O)[C@@H]1CCCN1S(=O)(=O)c1ccc(C)cc1`, the melting point is 122 to 123 °C.

Compound `COc1ccc(Cl)nc1C(N)=O` gave a melting point of 223 to 224 °C.

The compound `COc1ccc2c(C)c(CCN3CCN(c4ccccc4OC)CC3)c(=O)oc2c1` registered a melting point of 129 to 130 °C.

`Cc1c(Cl)ccc(NC(=O)CN2C(=O)c3ccccc3C2=O)c1Cl` registered a melting point of 245 to 246 °C.

`COc1cccc(Cc2nc3c(cnn3C(CCCc3ccccc3)C(C)O)c(=O)[nH]2)c1` (stereo not drawn) showed a melting point of 54 °C.

`COc1cc2oc(=O)c(CCOS(C)(=O)=O)c(C)c2c(OC)c1OC`: the melting point lay in the range of 114 to 115 °C.

Consider `COC(=O)c1ccccc1NC(=O)N(C)C`, for which the melting point lay within 85 to 90 °C.

In turn, `CC(=O)OCC(=O)Nc1cc(C#N)cc(NC(=O)COC(C)=O)c1Cl` had a melting point of 193 to 195 °C.

As to `O=Cc1cnn(-c2cccc(C(F)(F)F)c2)c1`, the melting point was in the range of 80 to 82 °C.

The compound `CC(C)C(=O)N1CCNC1=Nc1ccc(Cl)cc1Cl` returned a melting point of 147 to 148 °C.

On to `COCCN(C)S(=O)(=O)c1cc(-n2c(=O)cc(C(F)(F)F)n(C)c2=O)ccc1Cl`, for which the melting point lay in the range of 108 to 110 °C.

In turn, `O=C(NO)C1(S(=O)(=O)c2ccc(OCC#CCN3CCOCC3)cc2)CCN(Cc2ccc(Br)cc2)CC1` showed a melting point of 94 °C.

In the case of `CCCn1c(=O)c2[nH]c(-c3cc(C)n(CC(=O)Nc4ccc(OC)c(OC)c4)n3)nc2n(CCC)c1=O`, the melting point lay in the range of 285 to 290 °C.

The compound `CCCOC(=O)NCCCC1(O)c2ccccc2C=Cc2c(C)cccc21` (stereo not drawn) registered a melting point of 157 to 159 °C.

The compound `O=[N+]([O-])c1cc(Br)ccc1-c1ccc(Br)cc1[N+](=O)[O-]` came in with a melting point of 143 to 146 °C.

In turn, `Cc1ccc2c(c1)S(=O)CC(COC(=O)Nc1ccccc1)(COC(=O)Nc1ccccc1)C2=O` (stereo not drawn) displayed a melting point of 65 to 73 °C.

In turn, `NS(=O)(=O)c1ccccc1OCCCl` returned a melting point of 110 °C.

Consider `C#CC(=O)c1cc(C(C)(C)C)c(O)c(C(C)(C)C)c1`, for which the melting point fell in the range of 100 to 101 °C.

In turn, `CC(=O)Oc1cc2c(cc1C(C)(C)CC(C)(C)C)OC(C)(COc1ccc([N+](=O)[O-])cc1)CC2=O` (stereo not drawn) yielded a melting point of 166 to 167 °C.

In turn, `O=C(O)C(Cl)(Cl)CCCCCCCCCCBr` gave a melting point of 49 to 51 °C.

Compound `COc1ccc(-n2nc(CCC(=O)O)cc2-c2ccc(Cl)cc2)cc1` yielded a melting point of 126 to 128 °C.

With `CC(C)(C)c1cc(CCC2NC(=O)NC2=O)cc(C(C)(C)C)c1O` (stereo not drawn), the melting point is 207 to 208 °C.

The compound `CCc1nc(/C=C/c2cn(-c3ccccc3)nc2OCc2ccc(OCc3nc(-c4cccc(CC(=O)O)c4)oc3C)c(OC)c2)cs1` came in with a melting point of 154 to 155 °C.

Compound `CC(O)c1cc2cc(OCC(=O)O)c(Cl)c(Cl)c2s1` (stereo not drawn) had a melting point of 173 to 175 °C.

In turn, `CCN(CC)C(=O)c1c(CO)ccc(F)c1[Si](C)(C)C` displayed a melting point of 107 to 108 °C.

In turn, `CC(NC1=NS(=O)(=O)c2ccc(Cl)cc2N1)C(C)(C)C` (stereo not drawn) returned a melting point of over 220 °C.

Consider `CNC(=S)N1CCc2nc(N)sc2C1`, for which the melting point lay within 188 to 190 °C.

`CN(c1cccc2cc(C(=O)NCC(C)(C#N)SCc3ccccc3)[nH]c12)S(=O)(=O)c1cccs1` (stereo not drawn) displayed a melting point of 181 to 182 °C.

In the case of `O=C(O)c1ccc(Sc2ccccc2)cc1`, the melting point lay within 101 to 103 °C.

For `O=C(NCCc1c[nH]c2ccccc12)OCC1CC1`, the melting point is 88 to 90 °C.

In turn, `N#CC1CN1C(=O)NC(=O)c1ccc2ccccc2c1` (stereo not drawn) gave a melting point of 164 to 166 °C.

The compound `COc1nc(C(F)(F)F)cc(=O)n1-c1cc(O)c(Br)cc1F` returned a melting point of 132 to 136 °C.

The compound `CCOP(=O)(Cc1ccc(NC(=O)c2sc(SC)c3c2CCc2nc(C)oc2-3)cc1)OCC` displayed a melting point of 197 to 198 °C.

As to `CC[C@H](C)CCCCc1cnc(-c2ccc(OC(C)C)cc2)nc1`, the melting point was in the range of 47.2 to 47.7 °C.

Take `CCOC(=O)Cc1ccc(-n2c(-c3cccnc3N)nc3ccc(-c4cccnc4)nc32)cc1`: the melting point lay within 155 to 157 °C.

In turn, `Cc1cc(C(=O)N2Cc3ccccc3Cc3ccccc32)ccc1N` returned a melting point of 203 to 204 °C.

`COc1ccc2c3c(c(=O)oc2c1)CN(Cc1cccc(Cl)c1)CC3` had a melting point of 112 to 115 °C.

`CCONC(CC)=C1C(=O)CC(CCSc2ccc(Cl)cc2)CC1=O` (stereo not drawn) displayed a melting point of 42 to 43 °C.

`O=C(CC1CCCCC1)Nc1c(Cl)ccc2nc(N3CCC(NS(=O)(=O)C(F)(F)F)CC3)ccc12` registered a melting point of 187 to 189 °C.

`CN(CCOc1ccc(OC(F)(F)F)cc1)C1CCN(c2ccc(OC[C@@]3(C)Cn4cc([N+](=O)[O-])nc4O3)cc2)CC1` showed a melting point of 186 to 188 °C.

The compound `CSc1nnc(-c2ccc(F)cc2)c(-c2ccc(N(C)C)cc2)n1` gave a melting point of 144 to 146 °C.

On to `CC(C)(CO)c1cn2nc(NCCCN3CCC(OC(c4ccccc4)c4ccccc4)CC3)ccc2n1`, for which the melting point is 105 to 108 °C.

With `C=CCn1c(=Nc2ccccc2)sc2ncccc2c1=O`, the melting point is 94 to 95 °C.

`[N-]=[N+]=NC(=O)c1csc(Cl)n1` had a melting point of over 250 °C.

In the case of `CC(=O)C1CCC2C3CCC4CC(O)C(N5CCSC(C)(C)C5)CC4(C)C3C(=O)CC12C` (stereo not drawn), the melting point lay in the range of 202 to 203 °C.

`Clc1ccccc1CCN1CCN(c2n[nH]c3c2CCc2ccccc2-3)CC1` came in with a melting point of 134 to 136 °C.

`CCCc1c(OCC=CS(=O)(=O)c2ccc(CC(=O)O)c(F)c2)ccc(C(C)=O)c1O` came in with a melting point of 249 to 251 °C.

`CS(=O)(=O)N[C@@H]1CCCC[C@H]1Nc1nc(Nc2ccc3c(c2)CN(CCO)CCS3)ncc1Cl`: the melting point lay in the range of 76 to 86 °C.

Turning to `CN(C)CCc1[nH]c2ccccc2c1CC(C#N)(c1ccccc1)c1ccccc1`, the melting point is 181 to 185 °C.

For the compound `CCCCCCCCCCCC(=O)c1c[nH]c(C(=O)OC)c1`, the melting point lay in the range of 102 to 103 °C.

In turn, `CNC(=O)C(=NOC)c1ccccc1COc1ncc(C(=O)OC(C)C)cc1C` had a melting point of 101 to 102 °C.

`COC(=O)c1ccc(N)c(C(=O)OC)c1` displayed a melting point of 127 to 130 °C.

Take `CC(=O)OC[C@H]1O[C@@H]2[C@@H](Sc3ccc(Cl)cc3N2C)[C@@H](OC(C)=O)[C@@H]1OC(C)=O`: the melting point was 217 to 218 °C.

With `N#Cc1cc2c(c(C(=O)O)c1)NCCS2`, the melting point was 241 to 242 °C.

For `CCCCCCCOC(=O)Oc1ccc(-c2ccc(C#N)cc2)cc1`, the melting point was 50.2 to 50.5 °C.

The compound `Cc1ccc(C)n1CCNC(=S)Nc1ccc(C(=O)O)cc1` registered a melting point of 174 to 175 °C.

`COC(=O)C1=CNC=Cc2c1n(C)c1ccccc21` displayed a melting point of 131 to 132 °C.
